Source: patent publication US7527935B2, “G-protein coupled receptor having eicosanoid as ligand and gene thereof” (Mitsubishi Tanabe Pharma Corporation, priority 2002, dated 2009)

Experiments:
[1] = target: T1, fusion protein of TG1019 protein and Giα1 (351Cys→Ile) (Homo sapiens, UniProt P63096+Q8TDS5, C351I/D111G/K206E/T295A); assay: [35S]GTPγS binding to membrane fraction containing TG1019-Giα1 (351Cys→Ile) fusion protein (ligand identification); type: biochemical; settings: membrane fraction with TG1019-Giα1 (351Cys→Ile) fusion protein
T1 construct: made in house; host or cells: Sf9 insect cells (baculovirus, pVL1392), membrane fraction
Description: (§1) As stated in Example 1, it is concluded that TG1019 protein is a G-protein coupled receptor. Therefore, using a membrane fraction containing fused protein of TG1019 and G-protein, a ligand is identified as follows, according to a method for detecting a ligand-dependent binding with GTPγS (guanosine 5′-O-(3-thiotriphosphate)) [Wenzel-Seifert, et al., Mol. Pharmacom., Vol. 58, pp. 954-966, 2000; Bahia, et al., Biochemistry, Vol. 37, pp. 11555-11562, 1998].
Sf9 cells were inoculated onto a 10 cm Petri dish coated with collagen to about 70% confluence, and added thereto were Virus solution III (100 μl) obtained above and 12 ml of a culture medium, and the mixture was cultured at 27° C. for 4 days. The obtained cells were washed with a cooled PBS (Phosphate buffered saline, pH 7.4), and suspended in 3.6 ml of a cooled solution buffer [20 mM Tris-HCl, pH 7.5, 1 mM EDTA, 0.2 mM phenylmethylsulfonyl fluoride, 10 μg/ml pepstatin, 10 μg/ml leupeptin, and 2 μg/ml aprotinin], and the cells were homogenized by means of a Teflon homogenizer. This cell homogenate was centrifuged (600×g, 10 minutes), and the resultant supernatant was further centrifuged (50,000×g, 20 minutes). The obtained sediments were suspended in 450 μl of a cooled reaction buffer [20 mM Tris-HCl, pH 7.5, 50 mM sodium chloride, 10 mM magnesium chloride] by means of a Teflon homogenizer, to prepare a membrane fraction containing a fusion protein.
The membrane fraction (450 μl) obtained above (2) was suspended in a reaction buffer (7.54 ml), and added thereto was GDP (10 mM, 10 μl). To 160 μl of this solution was added 20 μl of a test compound. After incubating the mixture at 30° C. for 10 minutes, 20 μl of [^35S] GTPγS (5 nM, 5 nCi/μl: available from Amersham Pharmacia Biotech) was added to start reaction. After incubating the mixture at 30° C. for one hour, the reaction was terminated by filtration through a glass filter (UniFilter-96GF/B, available from Packard). The filter was washed with 200 μl of a cooled reaction buffer for 3 times, and an amount of the [^35S] GTPγS (a binding amount to the membrane fraction) on the filter was measured by liquid scintillation counting. From the thus measured [^35S] GTPγS binding amount was subtracted a nonspecific binding amount (a binding amount measured in the presence of 10 μM GTPγS), to obtain a specific binding amount of [^35S ] GTPγS.

[2] = target: T2, fusion protein of TG1019 protein and Giα1 (Homo sapiens, UniProt P63096+Q8TDS5, C351I/D111G/K206E/T295A); assay: Antagonist assay: inhibition of 5-oxo-ETE-stimulated G-protein activation ([35S]GTPγS binding) of TG1019-Giα1 fusion membrane fraction; type: biochemical; settings: inhibition of G-protein activating effect of TG1019 by 5-oxo-ETE 0.1 μM
T2 construct: made in house; host or cells: Sf9 insect cells (baculovirus, pVL1392), membrane fraction
Procedure: In the presence of 5-oxo-ETE (a ligand which acts as an agonist) and a test compound, a G-protein activating effect of TG1019 protein based on 5-oxo-ETE stimulation was detected, and an antagonistic effect of the test compound was examined.
Detection of the G-protein activation was carried out in a similar manner as in Example 3 (3) mentioned above, using a membrane fraction containing a fusion protein of TG1019 protein and Giα1 and a labeled GTPγS.
Specifically, a membrane fraction (450 μl) containing a fusion protein of TG1019 protein and Giα1 was suspended in a reaction solution (7.54 ml), and added thereto was 10 μl of GDP (10 mM). To 160 μl of this solution were added 5-oxo-ETE (the final concentration of 0.1 μM) and a test compound at various concentrations (0M, 10^−7M -10^−5M), and the mixture was incubated at 30° C. for 10 minutes (a total amount of 5-oxo-ETE and the test compound: 20 μl).
Added thereto was 20 μl of [^35S] GTPγS to start a reaction. After incubation at 30° C. for one hour, the reaction was terminated by filtration through a glass filter.
An amount of the [^35S] GTPγS (a binding amount to the membrane fraction) on the filter was measured by liquid scintillation counting. From the thus measured [^35S] GTPγS amount was subtracted a nonspecific binding amount (a binding amount measured in the presence of 10 μM GTPγS), to obtain a specific binding amount.

[3] = system: TG1019 (5-oxo-ETE receptor); assay: Intracellular calcium level in CHO cells stably expressing TG1019; type: cell-based, human; settings: FuraII 340/380 nm ratio
Procedure: (1) Preparation of cells stably expressing TG1019 Cells stably expressing TG1019 (the receptor protein of the present invention) and cells not expressing TG1019 were prepared by introducing to CHO cells the TG1019 protein expression vector prepared in Example 5 and the control vector, as described below.
The cells stably expressing TG1019 prepared in the above section (1) was incubated in DMEM/F12 medium supplemented with 10% fetal bovine serum at 37° C. in a CO2 incubator. To the cells which were 80 to 90% confluent, was added a cell dissociation buffer (Cell Dissociation Buffer Enzyme-free PBS-based, available from Invitrogen), and cells were dissociated by incubating at 37° C. for 5 minutes. […]
The cells after loading were centrifuged once with an assay buffer, to remove supernatant, and then, they were suspended in an assay buffer to have a concentration of 3.7 to 6.3×10^6 cells/ml. This cell suspension was portioned into a 96 well plate by 80 μl/well, and the plate was set in a fluorescence measuring device (FDSS6000, [Hamamatsu Photonics]), and the reaction was started by adding a solution containing 5-oxo-ETE or 5-HETE in a 5 fold concentration dissolved in an assay buffer, by 20 μl/well. The measurement was done by measuring fluorescence intensity at 510 nm, with excitation wavelength of 340 nm and 380 nm.

[4] = target: T3, fusion protein of TG1019 protein and Gqα (Homo sapiens, UniProt Q8TDS5, D111G/K206E/T295A); assay: [35S]GTPγS binding to membrane fraction containing TG1019-Gqα fusion protein; type: biochemical; settings: membrane fraction with TG1019-Gqα fusion protein; increase small compared to Giα
T3 construct: made in house; host or cells: Sf9 insect cells (baculovirus, pVL1392), membrane fraction
Description: as §1
Sf9 cells were inoculated onto a 10 cm Petri dish coated with collagen to about 70% confluence, and added thereto were Virus solution III (100 μl) obtained above and 12 ml of a culture medium, and the mixture was cultured at 27° C. for 4 days. […]
The membrane fraction (450 μl) obtained above (2) was suspended in a reaction buffer (7.54 ml), and added thereto was GDP (10 mM, 10 μl). […] GTPγS (a binding amount to the membrane fraction) on the filter was measured by liquid scintillation counting. From the thus measured [^35S] GTPγS binding amount was subtracted a nonspecific binding amount (a binding amount measured in the presence of 10 μM GTPγS), to obtain a specific binding amount of [^35S ] […]

[5] = system: PC3 human prostate cancer cells; assay: Apoptosis analysis (annexin V / PI flow cytometry) in PC3 cells; type: cell-based; settings: 20 μl of 1 mM DHA in 2 ml, 2 hours
Procedure: PC3 human prostate cancer cells, which had been cultured in RPMI1640 culture medium supplemented with 10% fetal bovine serum were dissociated by trypsin-EDTA solution (GibcoBRL), and suspended in RPMI1640 culture medium supplemented with 0.5% fetal bovine serum. The cells were plated onto a 6 cm Petri dish to 2×10^5 cells/dish, and cultured at 37° C. for 18 hours in a CO2 incubator. The supernatant was removed and 1980 μl of the same medium was added, and 20 μl of 1 mM DHA was further added thereto, and the mixture was cultured at 37° C. for 2 hours in a CO2 incubator.
In addition, as a test in the presence of 5-oxo-ETE, 1960 μl of RPMI1640 culture medium supplemented with 0.5% fetal bovine serum was added, and 20 μl of a 100 μM 5-oxo-ETE solution and 20 μl of a 1 mM DHA solution were further added thereto, and the cells were cultured in a similar manner as described above.
The adhered cells were removed by a cell scraper, transferred to a 1.5 ml tube, and centrifuged at 800×g for 5 minutes at 4° C., to collect suspended and adhered cells. […] The cells were suspended in 100 μl of a FITC-Annexin solution, and after 15 minutes of reaction under light-shielded condition at room temperature, 300 μl of Binding buffer was added thereto, and the FITC-Annexin bound to the cells and propidium iodide (PI) uptake into the cells were measured, by means of flow cytometer [Becton Dickinson].

T2 sequence (Q8TDS5+P63096 fused Q8TDS5:D111G/Q8TDS5:K206E/Q8TDS5:T295A/P63096:C351I): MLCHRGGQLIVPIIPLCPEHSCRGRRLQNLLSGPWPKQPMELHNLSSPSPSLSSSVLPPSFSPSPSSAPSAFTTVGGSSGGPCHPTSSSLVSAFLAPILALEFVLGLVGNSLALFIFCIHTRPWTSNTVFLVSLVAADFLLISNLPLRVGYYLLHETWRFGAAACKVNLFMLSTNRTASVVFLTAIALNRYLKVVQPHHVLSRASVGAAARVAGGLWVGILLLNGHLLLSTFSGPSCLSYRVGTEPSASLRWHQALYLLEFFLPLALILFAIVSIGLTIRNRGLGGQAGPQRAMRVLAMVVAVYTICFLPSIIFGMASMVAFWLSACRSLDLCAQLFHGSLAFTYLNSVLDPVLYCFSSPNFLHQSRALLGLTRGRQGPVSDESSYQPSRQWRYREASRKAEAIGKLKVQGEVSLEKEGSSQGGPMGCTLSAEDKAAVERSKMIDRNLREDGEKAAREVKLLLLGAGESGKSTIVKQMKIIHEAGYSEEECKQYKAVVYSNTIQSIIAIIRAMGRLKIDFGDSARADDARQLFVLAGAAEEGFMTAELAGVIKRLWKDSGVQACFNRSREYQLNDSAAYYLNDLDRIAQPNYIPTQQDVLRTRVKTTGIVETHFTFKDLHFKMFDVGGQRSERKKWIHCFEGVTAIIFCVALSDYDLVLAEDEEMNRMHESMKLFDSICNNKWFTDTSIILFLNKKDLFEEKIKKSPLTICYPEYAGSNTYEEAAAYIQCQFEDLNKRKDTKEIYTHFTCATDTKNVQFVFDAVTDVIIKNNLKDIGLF
T1 sequence (Q8TDS5+P63096 fused Q8TDS5:D111G/Q8TDS5:K206E/Q8TDS5:T295A/P63096:C351I): as above
T3 sequence (Q8TDS5 with tags, fused parts or gaps D111G/K206E/T295A): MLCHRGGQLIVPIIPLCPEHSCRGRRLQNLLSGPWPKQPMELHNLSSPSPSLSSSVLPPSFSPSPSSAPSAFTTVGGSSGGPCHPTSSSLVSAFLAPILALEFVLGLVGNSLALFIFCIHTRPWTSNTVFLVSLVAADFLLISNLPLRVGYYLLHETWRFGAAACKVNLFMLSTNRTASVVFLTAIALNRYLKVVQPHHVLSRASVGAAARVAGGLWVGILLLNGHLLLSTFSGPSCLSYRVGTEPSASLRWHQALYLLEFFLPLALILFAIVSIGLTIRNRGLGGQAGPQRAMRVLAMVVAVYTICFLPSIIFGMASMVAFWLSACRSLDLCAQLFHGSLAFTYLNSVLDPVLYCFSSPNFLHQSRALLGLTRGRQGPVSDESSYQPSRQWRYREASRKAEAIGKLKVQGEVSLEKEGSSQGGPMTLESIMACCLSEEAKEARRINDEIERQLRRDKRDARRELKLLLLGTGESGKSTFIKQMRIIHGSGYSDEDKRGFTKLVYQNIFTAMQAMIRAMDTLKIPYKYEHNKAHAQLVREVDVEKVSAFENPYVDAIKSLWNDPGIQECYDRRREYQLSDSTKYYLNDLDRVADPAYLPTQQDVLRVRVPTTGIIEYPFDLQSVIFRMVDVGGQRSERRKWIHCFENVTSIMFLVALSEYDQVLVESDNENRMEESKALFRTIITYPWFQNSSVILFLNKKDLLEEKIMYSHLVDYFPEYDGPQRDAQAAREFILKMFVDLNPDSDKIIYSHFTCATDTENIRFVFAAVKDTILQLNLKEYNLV

SMILES	specific binding amount of [35S]GTPγS [1]	IC50 [2]	further results
CCCCCCCCCCC/C=C\C/C=C\CCCC(=O)O [eicosa-5Z,8Z-dienoic acid]	increased in a concentration-dependent manner		
CCCCCCCC/C=C\C/C=C\C=C\C(O)CCCC(=O)O (centres unmarked) [5-HETrE, 5-hydroxyeicosa-6E,8Z,11Z-trienoic acid]	increased in a concentration-dependent manner		
CCCCCCCC/C=C\C/C=C\C/C=C\CCCC(=O)O [eicosa-5Z,8Z,11Z-trienoic acid]	increased in a concentration-dependent manner		
CCCCC/C=C\C/C=C\C/C=C\CCCCCCC(=O)O [Dihomo-γ-linolenic accid]		3.7 ± 0.7 µM	
CC/C=C\C/C=C\C/C=C\C/C=C\C/C=C\CCCC(=O)O [EPA, 5Z, 8Z, 11Z, 14Z, 17Z-eicosapentaenoic acid]		6 ± 1.2 µM	
CCCCC/C=C\C/C=C\C/C=C\C=C\C(O)CCCC(=O)O (centres unmarked) [5-HETE, 5-hydroxyeicosa-6E,8Z,11Z,14Z-tetraenoic acid]	increased in a concentration-dependent manner		change in intracellular calcium level [3]: increase in intracellular calcium level
CCCCC/C=C\C/C=C\C/C=C\C=C\C(CCCC(=O)O)OO (centres unmarked) [5-HPETE, 5-hydroperoxyeicosa-6E,8Z,11Z,14Z-tetraenoic acid]	increased in a concentration-dependent manner		specific binding amount of [35S]GTPγS [4]: increased
CCCCCCCCC#CCC#CCC#CCCCC(=O)O [ETI, 5,8,11-eicosatriynoic acid]	increased in a concentration-dependent manner		
CCCCC/C=C\C/C=C\C/C=C\C/C=C\CCCC(=O)O [arachidonic acid]	increased in a concentration-dependent manner		
CC/C=C\C/C=C\C/C=C\C/C=C\C/C=C\C/C=C\CCC(=O)O [DHA, 4Z, 7Z, 10Z, 13Z, 16Z, 19Z-docosahexaenoic acid]		1.6 ± 0.2 µM	induction of apoptosis (cells annexin positive, PI uptake negative) [5]: induces apoptosis of PC3 cells
CC/C=C\C/C=C\C/C=C\CCCCCCCCCC(=O)O [Eicosa-11Z, 14Z, 17Z-trienoic acid]		5.1 ± 0.6 µM	
